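Protocol summary: plate cells (96-well), add compound at 5 concentrations, incubate 48 h, interpolate endpoints linearly. GI50 marks 50% less growth. The concentration for full growth arrest is given as TGI.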
Columns and labels:
Experiment in all cases: growth of human tumour cells (NCI), 48 h
TK-10 renal = system: TK-10 renal
SK-MEL-2 melanoma = system: SK-MEL-2 melanoma
HT29 colon = system: HT29 colon
MOLT-4 leukemia = system: MOLT-4 leukemia
MDA-MB-231 breast = system: MDA-MB-231 breast
SNB-75 CNS = system: SNB-75 CNS
SR leukemia = system: SR leukemia
NCI-H522 lung = system: NCI-H522 lung
MALME-3M melanoma = system: MALME-3M melanoma
CCRF-CEM leukemia = system: CCRF-CEM leukemia

Cc1cc(N=Cc2c(CO)cnc(C)c2O)c(N=Cc2c(CO)cnc(C)c2O)cc1C.[Zn]
TGI (TK-10 renal): > 100 µM | TGI (SK-MEL-2 melanoma): > 100 µM | TGI (HT29 colon): > 100 µM | TGI (MOLT-4 leukemia): > 100 µM | TGI (MDA-MB-231 breast): > 100 µM | TGI (SNB-75 CNS): > 100 µM | GI50 (SR leukemia): > 100 µM | TGI (SR leukemia): > 100 µM | TGI (NCI-H522 lung): > 100 µM

Fc1ccc(C2CC(c3cccc(Nc4ccncc4)c3)=NN2c2cc(Cl)cc(Cl)c2)cc1 (centres undefined)
GI50 (TK-10 renal): 1.94 µM | TGI (TK-10 renal): 3.84 µM | GI50 (MALME-3M melanoma): 1.72 µM | TGI (MALME-3M melanoma): 3.41 µM | GI50 (MOLT-4 leukemia): 2.23 µM | TGI (MOLT-4 leukemia): 5.23 µM | GI50 (SNB-75 CNS): 1.31 µM | TGI (SNB-75 CNS): 2.91 µM | GI50 (SR leukemia): 2.06 µM | TGI (SR leukemia): 4.92 µM | GI50 (CCRF-CEM leukemia): 2.9 µM | TGI (CCRF-CEM leukemia): > 100 µM | GI50 (NCI-H522 lung): 1.88 µM | TGI (NCI-H522 lung): 3.9 µM

CC(=O)NC1=C(C)C(=O)c2c(nc3n2CCC3O)C1=O (centres undefined)
TGI (TK-10 renal): > 100 µM | TGI (SK-MEL-2 melanoma): 42.8 µM | TGI (MALME-3M melanoma): 37.5 µM | TGI (HT29 colon): > 100 µM | TGI (MOLT-4 leukemia): 16.6 µM | TGI (SNB-75 CNS): > 100 µM | TGI (SR leukemia): 35 µM | TGI (CCRF-CEM leukemia): 39.3 µM | TGI (NCI-H522 lung): 68.2 µM

O=C(NNc1cn[nH]c(=O)c1Cl)/C(=C/c1ccc2c(c1)OCO2)NC(=O)c1ccccc1
TGI (TK-10 renal): > 100 µM | TGI (SK-MEL-2 melanoma): > 100 µM | TGI (HT29 colon): > 100 µM | TGI (MOLT-4 leukemia): > 100 µM | TGI (MDA-MB-231 breast): > 100 µM | TGI (SNB-75 CNS): 86.2 µM

O=C1OC2(C(F)(F)F)Oc3ccccc3CN2C12CCCCC2 (centres undefined)
TGI (TK-10 renal): > 100 µM | TGI (MALME-3M melanoma): 53.2 µM | TGI (HT29 colon): > 100 µM | TGI (MOLT-4 leukemia): 54.3 µM | TGI (MDA-MB-231 breast): 59.5 µM | TGI (SNB-75 CNS): 59.1 µM | TGI (SR leukemia): 74.8 µM | TGI (CCRF-CEM leukemia): 62.7 µM | TGI (NCI-H522 lung): 83.3 µM

COc1ccc(/C=C(\C(=C/c2ccc(OC)cc2)[N+](=O)[O-])[N+](=O)[O-])cc1
TGI (TK-10 renal): 12.2 µM | TGI (SK-MEL-2 melanoma): 39.7 µM | TGI (MALME-3M melanoma): 11.9 µM | TGI (HT29 colon): 11.1 µM | TGI (MOLT-4 leukemia): > 70.4 µM | TGI (MDA-MB-231 breast): 5.56 µM | TGI (SNB-75 CNS): 68.6 µM | TGI (SR leukemia): > 100 µM | TGI (NCI-H522 lung): 8.8 µM

O=C(NCCCCNCCCNC(=O)c1ccccc1)c1ccccc1
TGI (TK-10 renal): > 100 µM | TGI (SK-MEL-2 melanoma): > 100 µM | TGI (HT29 colon): > 100 µM | TGI (MOLT-4 leukemia): > 100 µM | TGI (MDA-MB-231 breast): > 100 µM | TGI (SNB-75 CNS): > 100 µM | TGI (SR leukemia): > 100 µM | TGI (CCRF-CEM leukemia): > 100 µM | TGI (NCI-H522 lung): > 100 µM

O=C(c1ccccc1)c1c(C(F)(F)F)n([O-])c2cc(Cl)c(Cl)cc2[n+]1=O
TGI (TK-10 renal): 2.56 µM | TGI (SK-MEL-2 melanoma): 7.7 µM | TGI (MALME-3M melanoma): 5.33 µM | TGI (HT29 colon): 0.966 µM | TGI (MOLT-4 leukemia): 1.56 µM | TGI (SNB-75 CNS): 2.58 µM | TGI (SR leukemia): 0.724 µM | TGI (CCRF-CEM leukemia): 3.7 µM | TGI (NCI-H522 lung): 1.08 µM

CN(C)CCOC(=O)c1ccc(N)cc1
TGI (TK-10 renal): > 100 µM | TGI (MALME-3M melanoma): > 100 µM | TGI (HT29 colon): > 100 µM | TGI (MOLT-4 leukemia): 61.5 µM | TGI (MDA-MB-231 breast): 41.1 µM | TGI (CCRF-CEM leukemia): 69.8 µM | TGI (NCI-H522 lung): 68.1 µM

CCOP(=O)(OCC)/C(=C\N1C(=O)CC(=O)NC1=S)C(=O)OC
TGI (TK-10 renal): > 100 µM | TGI (SK-MEL-2 melanoma): > 100 µM | TGI (HT29 colon): > 100 µM | TGI (MOLT-4 leukemia): > 100 µM | TGI (MDA-MB-231 breast): > 100 µM | TGI (SNB-75 CNS): > 100 µM

CC(=NCCN(CCN=C(C)c1c(O)cc(C)oc1=O)CCN=C(C)c1c(O)cc(C)oc1=O)c1c(O)cc(C)oc1=O
TGI (TK-10 renal): > 100 µM | TGI (HT29 colon): > 100 µM | TGI (MOLT-4 leukemia): > 100 µM | TGI (MDA-MB-231 breast): > 100 µM | TGI (SNB-75 CNS): > 100 µM | TGI (SR leukemia): > 100 µM | TGI (CCRF-CEM leukemia): > 100 µM | TGI (NCI-H522 lung): > 100 µM

COc1ccccc1NC(=S)N/N=C(/C)c1ccccn1
TGI (TK-10 renal): 58.9 µM | TGI (SK-MEL-2 melanoma): > 88.7 µM | TGI (MALME-3M melanoma): 16.7 µM | TGI (HT29 colon): > 100 µM | TGI (MOLT-4 leukemia): > 100 µM | TGI (MDA-MB-231 breast): 7.46 µM | TGI (SNB-75 CNS): 49.2 µM | TGI (CCRF-CEM leukemia): 0.0737 µM | TGI (NCI-H522 lung): > 100 µM

CCc1nn(S(=O)(=O)c2ccc(C)cc2)c2c1CS(=O)(=O)CC2
TGI (TK-10 renal): > 100 µM | TGI (SK-MEL-2 melanoma): > 100 µM | TGI (HT29 colon): > 100 µM | TGI (MOLT-4 leukemia): > 100 µM | TGI (MDA-MB-231 breast): > 100 µM | TGI (SNB-75 CNS): > 100 µM

COc1ccc2c(c1)nc1n2C(N)=Nc2ccccc2S1
TGI (TK-10 renal): > 100 µM | TGI (SK-MEL-2 melanoma): > 100 µM | TGI (MALME-3M melanoma): > 100 µM | TGI (HT29 colon): > 100 µM | TGI (MOLT-4 leukemia): > 56.6 µM | TGI (MDA-MB-231 breast): > 100 µM | TGI (SNB-75 CNS): > 100 µM | TGI (CCRF-CEM leukemia): > 23.3 µM | TGI (NCI-H522 lung): > 100 µM

CC1(C)[C@@H](Cn2cnc3c(=O)[nH]c(N)nc32)CC[C@@]1(C)CO
TGI (TK-10 renal): > 100 µM | TGI (SK-MEL-2 melanoma): > 100 µM | TGI (MOLT-4 leukemia): > 100 µM | TGI (MDA-MB-231 breast): > 100 µM | TGI (SNB-75 CNS): > 100 µM | TGI (CCRF-CEM leukemia): > 100 µM

CC1CCc2c(sc3ncnc(N/N=C/c4ccc(Cl)c(Cl)c4)c23)C1 (centres undefined)
TGI (TK-10 renal): > 100 µM | TGI (SK-MEL-2 melanoma): > 100 µM | TGI (MALME-3M melanoma): > 100 µM | TGI (HT29 colon): > 100 µM | TGI (MOLT-4 leukemia): > 100 µM | TGI (SNB-75 CNS): 61.6 µM | TGI (SR leukemia): 33 µM | TGI (CCRF-CEM leukemia): 41.6 µM | TGI (NCI-H522 lung): 21 µM

C[C@@H]1C[C@]2(C[C@@H](C)[C@H]3C(C[C@@]4(C)CCC[C@@H]5C6=C[C@H](CCC34C)OC6=CC(=O)OC5(C)C)O2)OC1=O (some centres undefined)
TGI (SK-MEL-2 melanoma): > 51.5 µM | TGI (HT29 colon): > 51.5 µM | TGI (MOLT-4 leukemia): > 51.5 µM | TGI (SNB-75 CNS): 47.5 µM | TGI (CCRF-CEM leukemia): > 51.5 µM | TGI (NCI-H522 lung): > 51.5 µM

Oc1ccc2c(c1)CC[N+]1=C2CCC2CCCC21 (centres undefined)
TGI (TK-10 renal): > 100 µM | TGI (SK-MEL-2 melanoma): > 100 µM | TGI (HT29 colon): > 100 µM | TGI (SNB-75 CNS): > 100 µM

O=C1c2ccccc2C(=O)c2c1ccc1c2N=C(c2ccc(F)cc2)CC(c2ccc(Cl)c(Cl)c2)N1 (centres undefined)
TGI (TK-10 renal): 34 µM | TGI (SK-MEL-2 melanoma): 29.3 µM | TGI (HT29 colon): 26.3 µM | TGI (MOLT-4 leukemia): > 100 µM | TGI (SNB-75 CNS): 40.2 µM | TGI (SR leukemia): 54.4 µM | TGI (CCRF-CEM leukemia): 17.7 µM | TGI (NCI-H522 lung): 20.4 µM

CCOC(=O)c1c2c(n3ccc(NC(=O)OC(C)(C)C)cc13)C(=O)c1ncccc1C2=O
GI50 (TK-10 renal): 0.132 µM | TGI (TK-10 renal): 3.39 µM | GI50 (SK-MEL-2 melanoma): 0.44 µM | TGI (SK-MEL-2 melanoma): 9.24 µM | GI50 (MALME-3M melanoma): 0.0997 µM | TGI (MALME-3M melanoma): 1.27 µM | GI50 (HT29 colon): 0.638 µM | TGI (HT29 colon): 2.22 µM | GI50 (MOLT-4 leukemia): 0.78 µM | TGI (MOLT-4 leukemia): 7.52 µM | GI50 (SNB-75 CNS): 0.167 µM | TGI (SNB-75 CNS): 1.72 µM | GI50 (NCI-H522 lung): 0.179 µM | TGI (NCI-H522 lung): 0.817 µM

CC(=O)NC1C(OCc2ccccc2)OC(CO)C(O)C1OCC(=O)NC(C)C(=O)NC(CCC(=O)NCCCCCNc1c2ccccc2nc2cccc([N+](=O)[O-])c12)C(N)=O (centres undefined)
GI50 (TK-10 renal): < 0.0001 µM | TGI (TK-10 renal): 1.54 µM | TGI (SK-MEL-2 melanoma): < 0.0001 µM | TGI (MALME-3M melanoma): < 0.0001 µM | TGI (HT29 colon): < 0.0001 µM | TGI (MDA-MB-231 breast): < 0.0001 µM | TGI (SNB-75 CNS): 0.00164 µM | TGI (NCI-H522 lung): 0.0045 µM

CCNC(=O)/C=C/CCC#Cc1ccc(-c2ccc(-c3cccs3)s2)s1
TGI (TK-10 renal): > 100 µM | TGI (SK-MEL-2 melanoma): > 100 µM | TGI (MALME-3M melanoma): > 100 µM | TGI (HT29 colon): > 100 µM | TGI (MOLT-4 leukemia): > 100 µM | TGI (SNB-75 CNS): > 100 µM | TGI (SR leukemia): > 100 µM | TGI (CCRF-CEM leukemia): > 100 µM | TGI (NCI-H522 lung): > 100 µM

O=C1CCCC2=C1C(c1ccc3c(c1)OCO3)Nc1ccc3ccccc3c12 (centres undefined)
TGI (TK-10 renal): > 100 µM | TGI (SK-MEL-2 melanoma): > 100 µM | TGI (MALME-3M melanoma): > 100 µM | TGI (HT29 colon): > 100 µM | TGI (MDA-MB-231 breast): > 100 µM | TGI (SNB-75 CNS): > 100 µM | TGI (CCRF-CEM leukemia): > 100 µM | TGI (NCI-H522 lung): > 100 µM

CN1C/C(=C\c2ccc(Cl)cc2)C(=O)/C(=C/c2ccc(Cl)cc2)C1
TGI (TK-10 renal): > 100 µM | TGI (SK-MEL-2 melanoma): > 100 µM | TGI (MALME-3M melanoma): > 100 µM | TGI (HT29 colon): 0.824 µM | TGI (MDA-MB-231 breast): 8.08 µM | TGI (SNB-75 CNS): > 100 µM | TGI (SR leukemia): 5.47 µM | TGI (CCRF-CEM leukemia): 1.37 µM

From PubChem BioAssay (NCI)
